Measurements: patent US9974306B2, “Herbicidal combinations for tolerant soybean cultures” (priority 2012, dated 2018)

What was measured:
GLXMA GM_W336 = test: Post-emergence greenhouse treatment, visual rating of effect on W336 transgenic (HPPD inhibitor tolerant) soybean; format: in vivo; conditions: for Effect (%): GLXMA GM_W336
Procedure: (§1) The soybeans were grown under the same conditions as described above. The following three varieties were used in the tests:
(§2) 1) W336—Transgenic soybean plants comprising a chimeric gene encoding a W336 mutant HPPD protein of Pseudomonas fluorescens (U.S. Pat. No. 6,245,968) fused to the optimized transit peptide for chloroplast targeting (U.S. Pat. No. 5,510,471), and under the control of the 35S CaMV promoter (Odell et al., 1985, Nature 313: 810-812) fused to the 5′ enhancer sequence of TEV (Carrington and Freed, 1990, J. Virol. 64: 1590-1597), with as 3′ transcript termination and polyadenylation region that of the CaMV 35S gene (Sanfacon et al., 1991, Genes & Development 5:141-149), abbreviated as “W336 soybean plants” herein. 2) MERLIN—conventional 3) PROTINA—conventional
(§3) Two sets of soybeans reaching different growth stages at application time were prepared: one up to growth stage BBCH 11 (1-2 leaf stage) and the other up to BBCH 13 (3-4 leaf stage). Both soybean sets were treated at the same time (together with the weeds) but they were evaluated separately.
(§4) The applications were performed by post emergence treatments on the planted pots using a spray volume of 300 L water per hectare. The herbicides were applied alone and in combination as in the tables below.
(§5) The trial was conducted in the greenhouse ensuring optimal growing conditions.
(§6) The herbicidal effects were assessed 14 and 24 days following application by visual ratings comparing treated and untreated plants (0%=no effect to 100%=complete die-off).
(§7) The visual ratings are used to calculate interactions between treatments alone and combination treatments according to S. R. Colby, Weeds 15, pages 20 to 22 (1967).

SETFA = test: Post-emergence greenhouse treatment, visual rating of herbicidal effect; format: in vivo, Setaria faberi; conditions: 1-2 leaf
Procedure: (§8) Seeds of grass and broadleaf weeds were sown in pots (diameter: 8 cm) filled with a sandy loam soil. For the herbicide post-emergent treatment, the weeds were grown under optimal conditions up to a growth stage of BBCH 11 (1-2 leaf stage) to 14 (3-4 leaf stage) depending on species. The following weeds were used:
as §4, §5, §6, §7

BIDPI = test: as above; format: in vivo, Bidens pilosa
Procedure: as §8, §4, §5, §6, §7

BRAPP = test: as above; format: in vivo, Brachiaria platyphylla; conditions: for Effect (%): BRAPP
Procedure: as §8, §4, §5, §6, §7

EPHHL = test: as above; format: in vivo, Euphorbia heterophylla
Procedure: as §8, §4, §5, §6, §7

GLXMA Merlin = test: Post-emergence greenhouse treatment, visual rating of effect on conventional soybean MERLIN; format: in vivo; conditions: for Effect (%): GLXMA Merlin, assessment 24 d
Procedure: as §1, §2, §3, §4, §5, §6, §7

PHBPU = test: Post-emergence greenhouse treatment, visual rating of herbicidal effect; format: in vivo, Pharbitis purpurea
Procedure: as §8, §4, §5, §6, §7

SETVI = test: as above; format: in vivo, Setaria viridis; conditions: 1-2 leaf; for Effect: 24 d; for Effect (%): SETVI, assessment 24 d
Procedure: as §8, §4, §5, §6, §7

SORHA = test: as above; format: in vivo, Sorghum halepense
Procedure: as §8, §4, §5, §6, §7

GLXMA Protina = test: Post-emergence greenhouse treatment, visual rating of effect on conventional soybean PROTINA; format: in vivo; conditions: for Effect (%): GLXMA Protina
Procedure: as §1, §2, §3, §4, §5, §6, §7

POLCO = test: Post-emergence greenhouse treatment, visual rating of herbicidal effect; format: in vivo, Polygonum convolvulus; conditions: for Effect (%): POLCO, (B1) alone 40 g a.i./ha
Procedure: as §8, §4, §5, §6, §7

[1] = 1-2 leaf, 14 d, 20 g a.i./ha alone
[2] = 1-2 leaf, 24 d, 20 g a.i./ha alone
[3] = 1-2 leaf, 24 d, 40 g a.i./ha alone
[4] = 1-2 leaf, 24 d, 80 g a.i./ha alone
[5] = 3-4 leaf, 14 d, 20 g a.i./ha alone
[6] = 3-4 leaf, 14 d, 80 g a.i./ha alone
[7] = 1-2 leaf, assessment 24 d, (B1) alone 40 g a.i./ha
[8] = 1-2 leaf, assessment 24 d, (B1) alone 80 g a.i./ha
[9] = 3-4 leaf, assessment 14 d, (B1) alone 20 g a.i./ha
[10] = 3-4 leaf, assessment 14 d, (B1) alone 40 g a.i./ha

`CSc1nnc(C(C)(C)C)c(=O)n1N` [(B1), 4-amino-6-tert-butyl-4,5-dihydro-3-methylthio-1,2,4-triazin-5-one] was tested, and the Effect (GLXMA GM_W336; [1]) was 20%, the Effect (GLXMA GM_W336; [2]) was 10% and the Effect (GLXMA GM_W336; [3]) was 10%. For the same compound, the Effect (GLXMA GM_W336; [4]) was 30%, the Effect (GLXMA GM_W336; 1-2 leaf, 14 d, 80 g a.i./ha) was 25% and the Effect (GLXMA GM_W336; 1-2 leaf, 24 d, 40 g a.i./ha) was 10%. For the same compound, the Effect (GLXMA GM_W336; 1-2 leaf, 24 d, 80 g a.i./ha) was 30%, the Effect (GLXMA GM_W336; [5]) was 35% and the Effect (GLXMA GM_W336; [6]) was 35%. It also gave an Effect (GLXMA GM_W336; 3-4 leaf, 14 d, 20 g a.i./ha) of 35%, an Effect (GLXMA GM_W336; 3-4 leaf, 14 d, 40 g a.i./ha) of 35% and an Effect (GLXMA GM_W336; 3-4 leaf, 24 d, 20 g a.i./ha) of 30%. The “Effect (%)” value (GLXMA GM_W336; [7]) was 10%, the “Effect (%)” value (GLXMA GM_W336; [8]) was 30% and the “Effect (%)” value (GLXMA GM_W336; [9]) was 35%. For the same compound, the “Effect (%)” value (GLXMA GM_W336; [10]) was 35%, the Effect (SETFA; 14 d, 80 g a.i./ha) was 30% and the Effect (SETFA; 24 d, 40 g a.i./ha) was 10%. For the same compound, the “Effect (%)” value (SETFA; SETFA, assessment 24 d, (B1) alone 40 g a.i./ha) was 10%, the Effect (BIDPI; [2]) was 5% and the Effect (BIDPI; [3]) was 45%. The Effect (BIDPI; 3-4 leaf, 14 d, 20 g a.i./ha) was 40%, the Effect (BIDPI; 3-4 leaf, 24 d, 20 g a.i./ha) was 5% and the “Effect (%)” value (BIDPI; BIDPI, 3-4 leaf, assessment 14 d, (B1) alone 20 g a.i./ha) was 40%. For the same compound, the Effect (BRAPP; [1]) was 15%, the Effect (BRAPP; [2]) was 10% and the Effect (BRAPP; [3]) was 10%. For the same compound, the Effect (BRAPP; 3-4 leaf, 14 d, 20 g a.i./ha) was 15%, the Effect (BRAPP; 3-4 leaf, 14 d, 40 g a.i./ha) was 45% and the Effect (BRAPP; 3-4 leaf, 24 d, 20 g a.i./ha) was 10%. The “Effect (%)” value (BRAPP; [7]) was 10%, the “Effect (%)” value (BRAPP; [8]) was 35% and the “Effect (%)” value (BRAPP; [9]) was 15%. The “Effect (%)” value (BRAPP; [10]) was 45%, the Effect (EPHHL; [1]) was 45% and the Effect (EPHHL; [2]) was 20%. The Effect (EPHHL; [4]) was 65%, the Effect (EPHHL; 3-4 leaf, 24 d, 20 g a.i./ha) was 20% and the Effect (GLXMA Merlin; 1-2 leaf, 24 d, 40 g a.i./ha) was 0%. For the same compound, the Effect (GLXMA Merlin; [6]) was 50%, the Effect (GLXMA Merlin; 3-4 leaf, 24 d, 20 g a.i./ha) was 40% and the “Effect (%)” value (GLXMA Merlin; 1-2 leaf, (B1) alone 40 g a.i./ha) was 0%. For the same compound, the “Effect (%)” value (GLXMA Merlin; 1-2 leaf, (B1) alone 80 g a.i./ha) was 10%, the Effect (PHBPU; [2]) was 0% and the Effect (PHBPU; 1-2 leaf, 24 d, 40 g a.i./ha) was 0%. The Effect (PHBPU; 3-4 leaf, 14 d, 40 g a.i./ha) was 10%, the Effect (SETVI; 80 g a.i./ha alone) was 10% and the Effect (SETVI; 80 g a.i./ha) was 10%. The “Effect (%)” value (SETVI; (B1) alone 40 g a.i./ha) was 50%, the “Effect (%)” value (SETVI; (B1) alone 80 g a.i./ha) was 10% and the Effect (SORHA; [4]) was 10%. It also gave an Effect (SORHA; 1-2 leaf, 14 d, 80 g a.i./ha) of 20%, an Effect (SORHA; 1-2 leaf, 24 d, 80 g a.i./ha) of 10% and an Effect (SORHA; [5]) of 20%. The Effect (SORHA; [6]) was 20%, the Effect (SORHA; 3-4 leaf, 14 d, 20 g a.i./ha) was 20% and the Effect (SORHA; 3-4 leaf, 24 d, 20 g a.i./ha) was 0%. For the same compound, the “Effect (%)” value (SORHA; SORHA, 1-2 leaf, assessment 24 d, (B1) alone 40 g a.i./ha) was 10%, the Effect (GLXMA Protina; [1]) was 20% and the Effect (GLXMA Protina; [2]) was 15%. The Effect (GLXMA Protina; [3]) was 15%, the Effect (GLXMA Protina; [4]) was 40% and the Effect (GLXMA Protina; 1-2 leaf, 14 d, 80 g a.i./ha) was 40%. It also gave an Effect (GLXMA Protina; 1-2 leaf, 24 d, 80 g a.i./ha) of 40%, an Effect (GLXMA Protina; [5]) of 25% and an Effect (GLXMA Protina; 3-4 leaf, 14 d, 20 g a.i./ha) of 25%. The Effect (GLXMA Protina; 3-4 leaf, 14 d, 40 g a.i./ha) was 35%, the Effect (GLXMA Protina; 3-4 leaf, 24 d, 20 g a.i./ha) was 35% and the “Effect (%)” value (GLXMA Protina; [7]) was 15%. The “Effect (%)” value (GLXMA Protina; [9]) was 25%, the “Effect (%)” value (GLXMA Protina; [10]) was 35% and the Effect (POLCO; [4]) was 20%. It also gave an Effect (POLCO; [5]) of 10%, an Effect (POLCO; [6]) of 40% and an Effect (POLCO; 3-4 leaf, 14 d, 20 g a.i./ha) of 10%. The Effect (POLCO; 3-4 leaf, 24 d, 20 g a.i./ha) was 10%, the “Effect (%)” value (POLCO; 1-2 leaf, assessment 24 d) was 15% and the “Effect (%)” value (POLCO; 3-4 leaf, assessment 14 d) was 40%.
